Reference: US20260262643A1, “HERBICIDAL BENZOXAZINES” (FMC CORPORATION, priority 2022, published 2026)

Assays:
oat, wild [1] = experiment: Test A preemergence; assay type: in vivo, Avena fatua
How it was run: (§1)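 Plants were grown in loam and sand and treated preemergence or postemergence (one- to two-leaf stage, 2–10 cm) with compound in solvent plus surfactant. Response was scored against untreated controls after 10 greenhouse days, where 0 means no effect and 100 complete control.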

corn [2] = experiment: Test A postemergence; assay type: in vivo, Zea mays
How it was run: as §1

goosegrass [3] = experiment: Test A postemergence; assay type: in vivo, Eleusine indica
How it was run: as §1

soybean [4] = experiment: Test A postemergence; assay type: in vivo, Glycine max
How it was run: as §1

ryegrass, Italian [5] = experiment: Test A postemergence; assay type: in vivo, Lolium multiflorum
How it was run: as §1

galium = experiment: Test A postemergence; assay type: in vivo, Galium aparine
How it was run: as §1

corn [6] = experiment: Test A preemergence; assay type: in vivo, Zea mays
How it was run: as §1

foxtail, giant [7] = experiment: Test A postemergence; assay type: in vivo, Setaria faberi
How it was run: as §1

foxtail, giant [8] = experiment: Test A preemergence; assay type: in vivo, Setaria faberi
How it was run: as §1

sedge, umbrella = experiment: Test B flooded paddy test; assay type: in vivo, Cyperus difformis; details: 250 g ai/ha, Flood, 13 days, 0 to 100 scale (0 no effect, 100 complete control)
How it was run: (§2)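 2-leaf stage; pots flooded 3 cm over soil; compound dosed into paddy water; depth kept constant. Greenhouse, 13 d. Visual rating vs controls, 0 (no effect)–100 (complete control). Dash = no result.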

oat, wild [9] = experiment: Test A postemergence; assay type: in vivo, Avena fatua
How it was run: as §1

kochia [10] = experiment: Test A postemergence; assay type: in vivo, Bassia scoparia
How it was run: as §1

blackgrass [11] = experiment: Test A preemergence; assay type: in vivo, Alopecurus myosuroides
How it was run: as §1

soybean [12] = experiment: Test A preemergence; assay type: in vivo, Glycine max
How it was run: as §1

wheat [13] = experiment: Test A postemergence; assay type: in vivo, Triticum aestivum
How it was run: as §1

ragweed [14] = experiment: Test A preemergence; assay type: in vivo, Ambrosia artemisiifolia
How it was run: as §1

pigweed, palmer [15] = experiment: Test A postemergence; assay type: in vivo, Amaranthus palmeri
How it was run: as §1

blackgrass [16] = experiment: Test A postemergence; assay type: in vivo, Alopecurus myosuroides
How it was run: as §1

ryegrass, Italian [17] = experiment: Test A preemergence; assay type: in vivo, Lolium multiflorum
How it was run: as §1

pigweed, palmer [18] = experiment: Test A preemergence; assay type: in vivo, Amaranthus palmeri
How it was run: as §1

goosegrass [19] = experiment: Test A preemergence; assay type: in vivo, Eleusine indica
How it was run: as §1

rice = experiment: Test B flooded paddy test; assay type: in vivo, Oryza sativa; details: 250 g ai/ha, Flood, 13 days, 0 to 100 scale (0 no effect, 100 complete control)
How it was run: as §2

ducksalad = experiment: Test B flooded paddy test; assay type: in vivo, Heteranthera limosa; details: 250 g ai/ha, Flood, 13 days, 0 to 100 scale (0 no effect, 100 complete control)
How it was run: as §2

barnyardgrass = experiment: Test B flooded paddy test; assay type: in vivo, Echinochloa crus-galli; details: 250 g ai/ha, Flood, 13 days, 0 to 100 scale (0 no effect, 100 complete control)
How it was run: as §2

ragweed [20] = experiment: Test A postemergence; assay type: in vivo, Ambrosia artemisiifolia
How it was run: as §1

wheat [21] = experiment: Test A preemergence; assay type: in vivo, Triticum aestivum
How it was run: as §1

kochia [22] = experiment: Test A preemergence; assay type: in vivo, Bassia scoparia
How it was run: as §1

[23] = 125 g ai/ha, visual injury after 10 days, 0 to 100 scale, 0 is no effect, 100 is complete control
[24] = 500 g ai/ha, 0 to 100 scale (0 no effect, 100 complete control), 10 days
[25] = 125 g ai/ha, postemergence, 10 days, visual injury, 0 to 100 scale (0 no effect, 100 complete control)
[26] = 500 g ai/ha, Postemergence, 0 to 100 scale

C[C@H]1CN(C(=O)c2cccc(-n3cncn3)c2)c2cccc(C#N)c2O1 [Compound 46]
Plant response rating, Oat, Wild (oat, wild [1]; [23]): 0
Plant response rating, Oat, Wild (oat, wild [1]; [24]): 70
Plant response rating, Corn (corn [2]; [25]): 10
Plant response rating, Corn (corn [2]; [26]): 30
Plant response rating, Goosegrass (goosegrass [3]; [25]): 10
Plant response rating, Goosegrass (goosegrass [3]; [26]): 60
Plant response rating, Soybean (soybean [4]; [25]): 90
Plant response rating, Soybean (soybean [4]; [26]): 100
Plant response rating, Ryegrass, Italian (ryegrass, Italian [5]; [25]): 40
Plant response rating, Ryegrass, Italian (ryegrass, Italian [5]; [26]): 80
Plant response rating, Galium (galium; [25]): 60
Plant response rating, Galium (galium; [26]): 100
Plant response rating, Corn (corn [6]; [23]): 0
Plant response rating, Corn (corn [6]; [24]): 0
Plant response rating, Foxtail, Giant (foxtail, giant [7]; [25]): 20
Plant response rating, Foxtail, Giant (foxtail, giant [7]; [26]): 90
Plant response rating, Foxtail, Giant (foxtail, giant [8]; [23]): 60
Plant response rating, Foxtail, Giant (foxtail, giant [8]; [24]): 100
Plant response rating, Sedge, Umbrella (sedge, umbrella): 0
Plant response rating, Oat, Wild (oat, wild [9]; [25]): 0
Plant response rating, Oat, Wild (oat, wild [9]; [26]): 40
Plant response rating, Kochia (kochia [10]; [25]): 20
Plant response rating, Kochia (kochia [10]; [26]): 80
Plant response rating, Blackgrass (blackgrass [11]; [23]): 60
Plant response rating, Blackgrass (blackgrass [11]; [24]): 90
Plant response rating, Soybean (soybean [12]; [23]): 20
Plant response rating, Soybean (soybean [12]; [24]): 60
Plant response rating, Wheat (wheat [13]; [25]): 10
Plant response rating, Wheat (wheat [13]; [26]): 50
Plant response rating, Ragweed (ragweed [14]; [23]): 0
Plant response rating, Ragweed (ragweed [14]; [24]): 0
Plant response rating, Pigweed, Palmer (pigweed, palmer [15]; [25]): 20
Plant response rating, Pigweed, Palmer (pigweed, palmer [15]; [26]): 50
Plant response rating, Blackgrass (blackgrass [16]; [25]): 30
Plant response rating, Blackgrass (blackgrass [16]; [26]): 70
Plant response rating, Ryegrass, Italian (ryegrass, Italian [17]; [23]): 60
Plant response rating, Ryegrass, Italian (ryegrass, Italian [17]; [24]): 80
Plant response rating, Pigweed, Palmer (pigweed, palmer [18]; [23]): 40
Plant response rating, Pigweed, Palmer (pigweed, palmer [18]; [24]): 90
Plant response rating, Goosegrass (goosegrass [19]; [23]): 60
Plant response rating, Goosegrass (goosegrass [19]; [24]): 100
Plant response rating, Rice (rice): 0
Plant response rating, Ducksalad (ducksalad): 0
Plant response rating, Barnyardgrass (barnyardgrass): 0
Plant response rating, Ragweed (ragweed [20]; [25]): 0
Plant response rating, Ragweed (ragweed [20]; [26]): 0
Plant response rating, Wheat (wheat [21]; [23]): 0
Plant response rating, Wheat (wheat [21]; [24]): 30
Plant response rating, Kochia (kochia [22]; [24]): 40

C[C@H]1CN(C(=O)c2cccc(-n3cncn3)c2)c2cccc(C(F)(F)F)c2O1 [Compound 47]
Plant response rating, Oat, Wild (oat, wild [1]; [23]): 10
Plant response rating, Oat, Wild (oat, wild [1]; [24]): 30
Plant response rating, Corn (corn [2]; [25]): 30
Plant response rating, Corn (corn [2]; [26]): 60
Plant response rating, Goosegrass (goosegrass [3]; [25]): 0
Plant response rating, Goosegrass (goosegrass [3]; [26]): 20
Plant response rating, Soybean (soybean [4]; [25]): 80
Plant response rating, Soybean (soybean [4]; [26]): 100
Plant response rating, Ryegrass, Italian (ryegrass, Italian [5]; [25]): 30
Plant response rating, Ryegrass, Italian (ryegrass, Italian [5]; [26]): 90
Plant response rating, Galium (galium; [25]): 60
Plant response rating, Galium (galium; [26]): 90
Plant response rating, Corn (corn [6]; [23]): 0
Plant response rating, Corn (corn [6]; [24]): 0
Plant response rating, Foxtail, Giant (foxtail, giant [7]; [25]): 30
Plant response rating, Foxtail, Giant (foxtail, giant [7]; [26]): 90
Plant response rating, Foxtail, Giant (foxtail, giant [8]; [23]): 60
Plant response rating, Foxtail, Giant (foxtail, giant [8]; [24]): 90
Plant response rating, Sedge, Umbrella (sedge, umbrella): 0
Plant response rating, Oat, Wild (oat, wild [9]; [25]): 10
Plant response rating, Oat, Wild (oat, wild [9]; [26]): 30
Plant response rating, Kochia (kochia [10]; [25]): 50
Plant response rating, Kochia (kochia [10]; [26]): 90
Plant response rating, Blackgrass (blackgrass [11]; [23]): 70
Plant response rating, Blackgrass (blackgrass [11]; [24]): 90
Plant response rating, Soybean (soybean [12]; [23]): 0
Plant response rating, Soybean (soybean [12]; [24]): 40
Plant response rating, Wheat (wheat [13]; [25]): 20
Plant response rating, Wheat (wheat [13]; [26]): 40
Plant response rating, Ragweed (ragweed [14]; [23]): 0
Plant response rating, Ragweed (ragweed [14]; [24]): 0
Plant response rating, Pigweed, Palmer (pigweed, palmer [15]; [25]): 70
Plant response rating, Pigweed, Palmer (pigweed, palmer [15]; [26]): 90
Plant response rating, Blackgrass (blackgrass [16]; [25]): 10
Plant response rating, Blackgrass (blackgrass [16]; [26]): 60
Plant response rating, Ryegrass, Italian (ryegrass, Italian [17]; [23]): 80
Plant response rating, Ryegrass, Italian (ryegrass, Italian [17]; [24]): 90
Plant response rating, Pigweed, Palmer (pigweed, palmer [18]; [23]): 60
Plant response rating, Pigweed, Palmer (pigweed, palmer [18]; [24]): 90
Plant response rating, Goosegrass (goosegrass [19]; [23]): 80
Plant response rating, Goosegrass (goosegrass [19]; [24]): 100
Plant response rating, Rice (rice): 0
Plant response rating, Ducksalad (ducksalad): 0
Plant response rating, Barnyardgrass (barnyardgrass): 0
Plant response rating, Ragweed (ragweed [20]; [25]): 0
Plant response rating, Ragweed (ragweed [20]; [26]): 0
Plant response rating, Wheat (wheat [21]; [23]): 0
Plant response rating, Wheat (wheat [21]; [24]): 20
Plant response rating, Kochia (kochia [22]; [23]): 0
Plant response rating, Kochia (kochia [22]; [24]): 50

C[C@H]1CN(C(=O)c2cccc(-n3cncn3)c2)c2cccc(OC(F)(F)F)c2O1 [Compound 48]
Plant response rating, Oat, Wild (oat, wild [1]; [23]): 20
Plant response rating, Oat, Wild (oat, wild [1]; [24]): 30
Plant response rating, Corn (corn [2]; [25]): 10
Plant response rating, Corn (corn [2]; [26]): 60
Plant response rating, Goosegrass (goosegrass [3]; [25]): 0
Plant response rating, Goosegrass (goosegrass [3]; [26]): 40
Plant response rating, Soybean (soybean [4]; [25]): 70
Plant response rating, Soybean (soybean [4]; [26]): 100
Plant response rating, Ryegrass, Italian (ryegrass, Italian [5]; [25]): 20
Plant response rating, Ryegrass, Italian (ryegrass, Italian [5]; [26]): 40
Plant response rating, Galium (galium; [25]): 40
Plant response rating, Galium (galium; [26]): 60
Plant response rating, Corn (corn [6]; [23]): 0
Plant response rating, Corn (corn [6]; [24]): 30
Plant response rating, Foxtail, Giant (foxtail, giant [7]; [25]): 20
Plant response rating, Foxtail, Giant (foxtail, giant [7]; [26]): 70
Plant response rating, Foxtail, Giant (foxtail, giant [8]; [23]): 20
Plant response rating, Foxtail, Giant (foxtail, giant [8]; [24]): 90
Plant response rating, Sedge, Umbrella (sedge, umbrella): 0
Plant response rating, Oat, Wild (oat, wild [9]; [25]): 10
Plant response rating, Oat, Wild (oat, wild [9]; [26]): 30
Plant response rating, Kochia (kochia [10]; [25]): 20
Plant response rating, Kochia (kochia [10]; [26]): 50
Plant response rating, Blackgrass (blackgrass [11]; [23]): 20
Plant response rating, Blackgrass (blackgrass [11]; [24]): 80
Plant response rating, Soybean (soybean [12]; [23]): 0
Plant response rating, Soybean (soybean [12]; [24]): 0
Plant response rating, Wheat (wheat [13]; [25]): 10
Plant response rating, Wheat (wheat [13]; [26]): 30
Plant response rating, Ragweed (ragweed [14]; [23]): 0
Plant response rating, Ragweed (ragweed [14]; [24]): 0
Plant response rating, Pigweed, Palmer (pigweed, palmer [15]; [25]): 30
Plant response rating, Pigweed, Palmer (pigweed, palmer [15]; [26]): 70
Plant response rating, Blackgrass (blackgrass [16]; [25]): 0
Plant response rating, Blackgrass (blackgrass [16]; [26]): 30
Plant response rating, Ryegrass, Italian (ryegrass, Italian [17]; [23]): 70
Plant response rating, Ryegrass, Italian (ryegrass, Italian [17]; [24]): 100
Plant response rating, Pigweed, Palmer (pigweed, palmer [18]; [23]): 30
Plant response rating, Pigweed, Palmer (pigweed, palmer [18]; [24]): 90
Plant response rating, Goosegrass (goosegrass [19]; [23]): 40
Plant response rating, Goosegrass (goosegrass [19]; [24]): 80
Plant response rating, Rice (rice): 0
Plant response rating, Ducksalad (ducksalad): 0
Plant response rating, Barnyardgrass (barnyardgrass): 0
Plant response rating, Ragweed (ragweed [20]; [25]): 0
Plant response rating, Ragweed (ragweed [20]; [26]): 20
Plant response rating, Wheat (wheat [21]; [23]): 0
Plant response rating, Wheat (wheat [21]; [24]): 0
Plant response rating, Kochia (kochia [22]; [23]): 0
Plant response rating, Kochia (kochia [22]; [24]): 30
